Measurements: paper PMC6274259, “New 3-Cyano-2-Substituted Pyridines Induce Apoptosis in MCF 7 Breast Cancer Cells” (Molecules, 2016)

Columns and labels:
[1] = system: SK-OV-3 human ovarian carcinoma cell line; test: WST-1 cell viability assay, SK-OV-3; assay type: cell-based; details: Homo sapiens, SK-OV-3; WST-1, 24 h treatment, mean ± S.D of three independent experiments
Description: (§1) The synthesized compounds were screened for their cytotoxicity on five cancer cell lines, namely SK-OV-3, MCF-7, MDA-MB-231, HCT-116 and RKO, using a WST colorimetric assay. The assay principle is based upon the reduction of the tetrazolium salt WST-1 to formazan by cellular mitochondrial dehydrogenases present in viable cells. […] Among the latter compounds the benzohydrazide derivative 9a emerged with the lowest IC50 in this study against MCF-7 cells compared to 5-FU. […] Based on the fact that 9a had less cytotoxic effects on normal breast epithelial cells it was subjected to further studies.
(§2) The following cell lines were used for the screening stage, obtained from the American Type Culture Collection (ATCC, Manassas, VA, USA); SK-OV-3 (HTB-77), MCF-12A (ATCC CRL-10782), MDA-MB-231 (ATCC HTB-26), HCT-116 (CCL-247), RKO (CRL-2577) and sub-culturing of the above cell lines was conducted in 75 cm^2 flasks. The old culture media was removed and discarded after assessing the confluency of the cells and the cells were rinsed with 2–3 mL diluted trypsin (1×) (trypsin/EDTA solution consists of 0.025% trypsin and 0.01% EDTA in PBS), for about 5 minutes for complete detachment. The cells were observed under the inverted microscope until the cell layer is completely dispersed. 75 cm^2 flasks were prepared and 16 mL of DMEM media for SK-OV-3, MCF-7, MDA-MB-231, (DMEM 4500 mg glucose) and RPMI media for HCT-116 were added to each flask. The cells were aspirated gently and added to the flasks. DMEM 4500 mg/L high glucose with 10% FBS, 5% streptomycin and penicillin, RPMI 1640 (prepared by adding 5% heat-inactivated FCS and 2 mm glutamine) were used. DMEM was also used for MCF-12A cells with the addition of human epidermal growth factor 20 ng/mL, insulin 0.01 mg/mL and hydrocortisone 500 ng/mL.
(§3) The synthesized compounds were screened for their anti-proliferative activity using 5-FU (F6627-1G, Sigma-Aldrich, St. Louis, MO, USA) as reference compound. A concentration of 0.4% DMSO was used in all experiment after ensuring 100% viability of the cell lines with this concentration. A 25 mM stock concentration of all compounds was prepared for further studies and analysis.
(§4) Cells were trypsinized and placed in a 15 mL Falcon tube, the cells were centrifuged for 3 min at 1000 rpm. Trypsin is decanted using a sterile pipette and then the pellet is loosened by flicking the tube few times then 5–10 mL warm DMEM or RPMI were added to the Falcon tube and the pellet is resuspended. Cell count was done next by taking 10 μL of the suspension into the cell counting slide and read under 10× cells/mL. A cell stock of 50,000 cells/mL was prepared for the 96 wells. Cells (100 μL) were added to each well using a sterile pipette each time to ensure consistency. The experiment was planned ahead of time using excel sheet, 3–6 wells were reserved as blank media while 3–6 wells for vehicle (DMSO). The plate was incubated for 24 h for compound treatment step. DMEM media was used to prepare different dilutions of the compounds. The old DMEM media was removed from the wells using sterile pipette in the hood and the media was replaced with 100 μL media with each compound. The plate was incubated for 24 h. After 24 h incubation, WST-1 reagent (Sigma) was added to each well and then the plate was incubated for 1 h before measuring the absorbance using VICTOR™ Multilabel Plate Reader (Perkin Elmer, Beaconsfield, UK). The absorbance of the colored solution can be quantified by measuring at a certain wavelength (usually between 500–600 nm), in this experiment the first reading was conducted at 540 nm and the second reading at 690 nm for the reference wavelength. The percentage of cell viability was determined as the ratio of the absorbance of the sample vs the control. Three independent experiments were performed. […] 5-Florouracil (Sigma-Aldrich, F6627-1G) was used as reference standard.

[2] = system: MCF-7 human breast adenocarcinoma cell line; test: WST-1 cell viability assay, MCF-7; assay type: cell-based; details: Homo sapiens, MCF7, 24 h, WST-1, 24 h treatment, mean ± S.D of three independent experiments
Description: as §1, §2, §3, §4

[3] = system: MDA-MB-231 human breast adenocarcinoma cell line; test: WST-1 cell viability assay, MDA-MB-231; assay type: cell-based; details: Homo sapiens, MDA-MB-231; WST-1, 24 h treatment, mean ± S.D of three independent experiments
Description: as §1, §2, §3, §4

[4] = system: HCT-116 human colon carcinoma cell line; test: WST-1 cell viability assay, HCT-116; assay type: cell-based; details: Homo sapiens, HCT-116; WST-1, 24 h treatment, mean ± S.D of three independent experiments
Description: as §1, §2, §3, §4

[5] = system: RKO human colon carcinoma cell line; test: WST-1 cell viability assay, RKO; assay type: cell-based; details: Homo sapiens, Colon carcinoma cell; WST-1, 24 h treatment, mean ± S.D of three independent experiments
Description: as §1, §2, §3, §4

SMILES	IC50 [1] [µM]	IC50 [2] [µM]	IC50 [3] [µM]	IC50 [4] [µM]	IC50 [5] [µM]	melting point [°C]
COc1ccc(-c2cc(-c3ccc(OC)c(OC)c3)c(C#N)c(OCC(=O)n3nc(C)cc3C)n2)cc1OC [Compound 11, 4,6-Bis(3,4-dimethoxyphenyl)-2-(2-(3,5-dimethyl-1H-pyrazol-1-yl)-2-oxoethoxy)pyridine-3-carbonitrile]	26.2 ± 0.95	> 50	> 50	33.9 ± 0.87	> 50	161 to 163
COc1ccc(-c2cc(-c3ccc(OC)c(OC)c3)c(C#N)c(OCC(=O)N3N=C(C)CC3=O)n2)cc1OC [Compound 12, 4,6-bis(3,4-Dimethoxyphenyl)-2-(2-(3-methyl-5-oxo-4,5-dihydro-1H-pyrazol-1-yl)-2-oxoethoxy)pyridine-3-carbonitrile]	20.3 ± 1.72	> 50	> 50	40.4 ± 1.76	> 50	189 to 190
COC(=O)c1c(SC)nn(C(=O)COc2nc(-c3ccc(OC)c(OC)c3)cc(-c3ccc(OC)c(OC)c3)c2C#N)c1N [Compound 13a, Methyl 5-amino-1-{[(3-cyano-4,6-bis(3,4-dimethoxyphenyl)pyridin-2-yl)oxy]acetyl}-3-(methylsulfanyl)-1H-pyrazole-4-carboxylate]	> 50	> 50	> 50	36.3 ± 1.71	> 50	184 to 186
COc1ccc(-c2cc(-c3ccc(OC)c(OC)c3)c(C#N)c(OCC(=O)n3nc(SC)c(C#N)c3N)n2)cc1OC [Compound 13b, 2-{2-[5-Amino-4-cyano-3-(methylsulfanyl)-1H-pyrazol-1-yl]-2-oxoethoxy}-4,6-bis(3,4-dimethoxyphenyl)-pyridine-3-carbonitrile]	> 50	> 50	> 50	30.1 ± 0.76	> 50	202 to 204
